Results taken from patent US11999727B2 (Tango Therapeutics, Inc., priority 2020, dated 2024).
Where two headings read alike, the source gives them in different places.

Tests used:
[1] = test system: HAP1 MTAP-deleted cell line; assay: Viability assay, MTAP-deleted cell line; format: cell-based
From the text: Table 1 additionally indicates IC50 values in a viability assay for the MTAP-deleted cell line (column 10), indicating the effect of treatment with compound on cell survival.

PRMT5 [2] = target: T1, PRMT5 (Homo sapiens, UniProt O14744); assay: PRMT5 biochemical IC50 assay with MTA as cofactor; details: PRMT5, MTA as cofactor; read-out: MTA IC50
T1 construct: purchased Viva (custom protein)

PRMT5 [3] = target: T1, PRMT5; assay: PRMT5 biochemical IC50 assay with no cofactor; details: PRMT5, no cofactor
From the text: Table 1 indicates IC50 values (μM) against PRMT5 for exemplary compounds in the presence of SAM as cofactor, with no cofactor, and with MTA as cofactor, respectively (columns 4-6). […] Ki values can be calculated from the IC50 values as described in the Examples section. As detailed in the Examples section, for the assay performed in the presence of SAM, IC50=Ki×1.5 (Ki=IC50/1.5).

[4] = test system: HAP1 MTAP-deleted cell line; assay: SDMA in-cell western assay, HAP1 MTAP-deleted; format: cell-based
Outline: (§1)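 MTAP-null vs endogenous-MTAP HAP1 isogenic cells; in-cell western SDMA readout; IC50 per line.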

PRMT5 [5] = target: T1, PRMT5; assay: PRMT5 biochemical IC50 assay with SAM as cofactor; details: PRMT5, SAM as cofactor; read-out: SAM IC50
[6] = test system: HAP1 MTAP-intact cell line; assay: SDMA in-cell western assay, HAP1 MTAP-intact; format: cell-based
Outline: as §1

[7] = Homo sapiens, HAP1, viability assay, MTAP-deleted cell line, read-out: HAP1 MTAP deleted viability
[8] = Homo sapiens, HAP1, SDMA in-cell western, HAP1 MTAP-deleted, read-out: HAP1 MTAP deleted IC50
[9] = IC50 ratio HAP1 MTAP-intact / HAP1 MTAP-deleted, SDMA in-cell western
[10] = Homo sapiens, HAP1, SDMA in-cell western, HAP1 MTAP-intact, read-out: MTAP HAP1 intact IC50
[11] = Homo sapiens, HAP1, viability assay, HAP1 MTAP-deleted, read-out: HAP1 MTAP deleted viability
[12] = read-out: No Cofactor/ rel IC50
[13] = Homo sapiens, HAP1, SDMA in-cell western, HAP1 MTAP-deleted, read-out: HAP 1 MTAP deleted IC50
[14] = Homo sapiens, HAP1, viability IC50, MTAP-deleted cell line, read-out: HAP1 MTAP deleted viability

T1 sequence (O14744 whole entry): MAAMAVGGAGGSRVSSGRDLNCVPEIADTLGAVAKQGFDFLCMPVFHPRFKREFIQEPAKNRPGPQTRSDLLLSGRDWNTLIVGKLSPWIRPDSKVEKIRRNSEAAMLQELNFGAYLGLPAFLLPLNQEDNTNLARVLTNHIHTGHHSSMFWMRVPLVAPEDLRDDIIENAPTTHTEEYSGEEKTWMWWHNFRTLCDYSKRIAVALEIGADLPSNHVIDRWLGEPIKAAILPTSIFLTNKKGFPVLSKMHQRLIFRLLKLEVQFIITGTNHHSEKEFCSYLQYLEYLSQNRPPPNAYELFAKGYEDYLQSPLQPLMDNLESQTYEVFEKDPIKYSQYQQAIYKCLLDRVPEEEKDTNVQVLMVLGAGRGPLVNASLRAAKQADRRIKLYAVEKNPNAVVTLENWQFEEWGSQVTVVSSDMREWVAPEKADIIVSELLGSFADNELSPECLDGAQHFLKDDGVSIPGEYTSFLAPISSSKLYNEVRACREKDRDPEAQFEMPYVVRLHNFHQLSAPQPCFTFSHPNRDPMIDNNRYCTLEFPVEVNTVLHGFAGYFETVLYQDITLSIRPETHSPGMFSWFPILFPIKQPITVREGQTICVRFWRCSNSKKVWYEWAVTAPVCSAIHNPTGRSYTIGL
T1 sequence (Q9BQA1 whole entry partner): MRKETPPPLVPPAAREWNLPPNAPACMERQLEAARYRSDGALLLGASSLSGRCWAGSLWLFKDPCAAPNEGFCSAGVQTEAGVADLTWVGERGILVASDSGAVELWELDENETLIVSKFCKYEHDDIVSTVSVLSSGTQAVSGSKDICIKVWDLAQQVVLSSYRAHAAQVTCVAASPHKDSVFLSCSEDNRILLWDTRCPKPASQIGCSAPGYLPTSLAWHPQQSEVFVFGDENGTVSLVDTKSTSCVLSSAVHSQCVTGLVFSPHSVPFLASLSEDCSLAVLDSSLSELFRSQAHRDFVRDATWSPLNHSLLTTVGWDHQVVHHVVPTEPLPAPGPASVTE

Row | SMILES | IC50 (PRMT5 [2]) | IC50 (PRMT5 [3]; read-out: No Cofactor/rel IC50) | IC50 [4, 8] | IC50 (PRMT5 [5]) | IC50 [6, 10] | IC50 ([4]; SDMA in-cell western, HAP1 MTAP-deleted, read-out: HAP1 MTAP deleted IC50) | IC50 ([6]; SDMA in-cell western, HAP1 MTAP-intact, read-out: MTAP HAP1 intact IC50) | IC50 (PRMT5 [3]; [12]) | IC50 [4, 13] | IC50 [1, 7] | MTAP intact/deleted ratio [4, 9] | IC50 [1, 11] | IC50 ([1]; viability assay, MTAP-deleted cell line, read-out: HAP1 MTAP deleted viability) | IC50 [1, 14] | IC50 ([1]; Homo sapiens, HAP1, read-out: HAP1 MTAP deleted viability) | IC50 ([4]; Homo sapiens, HAP1, read-out: HAP1 MTAP deleted IC50) | MTAP intact/deleted ratio ([4]; IC50 ratio HAP1 MTAP-intact vs HAP1 MTAP-deleted, SDMA in-cell western) | IC50 ([6]; Homo sapiens, HAP1, read-out: MTAP HAP1 intact IC50) | IC50 ([1]; Homo sapiens, HAP1, viability, HAP1 MTAP-deleted cell line, read-out: HAP1 MTAP deleted viability)
1 | Cc1cc(NC(=O)C(=O)N2C[C@@H](C)CC[C@@H]2c2ccc3c(c2)CCCN3)cnc1N (single isomer, unassigned) [Compound 503] | > 0.5 µM | > 0.5 µM | > 1 µM | > 0.5 µM | > 1 µM |  |  |  |  | > 10 µM | C (an IC50 ratio of less than 3 fold) |  |  |  |  |  |  |  | 
2 | C[C@@H]1CC[C@@H](c2cnc3ccccc3c2)N(C(=O)C(=O)Nc2cncc(C(N)=O)c2)C1 (racemic) [Compound 257, rac-5-{2-[(2R,5S)-5-Methyl-2-(quinolin-3-yl)piperidin-1-yl]-2-oxoacetamido}pyridine-3-carboxamide] | 0.05 to 0.5 µM | > 0.5 µM | > 1 µM | > 0.5 µM | > 1 µM |  |  |  |  | > 10 µM | B (an IC50 ratio greater than or equal to 3 fold but lower than 10 fold) |  |  |  |  |  |  |  | 
3 | C[C@H]1CC[C@H](c2ccc(NS(C)(=O)=O)cc2)N(C(=O)C(=O)Nc2cncc(C(N)=O)c2)C1 (single isomer, unassigned) [Compound 462] | < 0.05 µM | 0.05 to 0.5 µM | 0.1 to 1 µM | 0.05 to 0.5 µM | > 1 µM |  |  |  |  | 1 to 10 µM | A (an IC50 ratio greater than or equal to 10 fold) |  |  |  |  |  |  |  | 
4 | CC1CCC2CCCCC2N1C(=O)C(=O)Nc1cncc(C(N)=O)c1 (stereo not shown) [Compound 144, 5-[2-(2-Methyl-decahydroquinolin-1-yl)-2-oxoacetamido]pyridine-3-carboxamide] | < 0.05 µM |  |  | 0.05 to 0.5 µM | > 1 µM |  |  | 0.05 to 0.5 µM | 0.1 to 1 µM | > 10 µM | A (an IC50 ratio greater than or equal to 10 fold) |  |  |  |  |  |  |  | 
5 | CC1CC(C)C(c2ccccc2)N(C(=O)C(=O)Nc2cncc(C(N)=O)c2)C1 (stereo not shown) [Compound 183, 5-(2-(3,5-dimethyl-2-phenylpiperidin-1-yl)-2-oxoacetamido)nicotinamide] | > 0.5 µM | > 0.5 µM | > 1 µM | > 0.5 µM | > 1 µM |  |  |  |  | > 10 µM | C (an IC50 ratio of less than 3 fold) |  |  |  |  |  |  |  | 
6 | C[C@H]1CC[C@H](c2ccc3sncc3c2)N(C(=O)C(=O)Nc2cnc(N)c(C3CC3)c2)C1 (single isomer, unassigned) [Compound 1153] | < 0.05 µM | < 0.05 µM |  | 0.05 to 0.5 µM |  |  |  |  |  |  |  |  |  |  | < 1 µM | < 0.1 µM | A (an IC50 ratio greater than or equal to 10 fold) | 0.1 to 1 µM | 
7 | C[C@@H]1CC[C@@H](c2ccc(-c3cc[nH]n3)cc2)N(C(=O)C(=O)Nc2cncc(C(N)=O)c2)C1 (single isomer, unassigned) [Compound 627] | > 0.5 µM | > 0.5 µM |  | > 0.5 µM | > 1 µM |  |  |  | 0.1 to 1 µM |  | A (an IC50 ratio greater than or equal to 10 fold) |  |  | > 10 µM |  |  |  |  | 
8 | COc1ncc(NC(=O)C(=O)N2C[C@H](C)CC[C@H]2c2ccc(C)cn2)cc1C(N)=O (racemic) [Compound 932, 2-Methoxy-5-[[2-[(2R,5S)-5-methyl-2-(5-methyl-2-pyridyl)-1-piperidyl]-2-oxo-acetyl]amino]pyridine-3-carboxamide] | 0.05 to 0.5 µM | 0.05 to 0.5 µM |  | 0.05 to 0.5 µM | > 1 µM |  |  |  | < 0.1 µM | 1 to 10 µM | A (an IC50 ratio greater than or equal to 10 fold) |  |  |  |  |  |  |  | 
9 | C[C@H]1CN(C(=O)C(=O)Nc2cncc(C(N)=O)c2)[C@H](c2ccc(F)cc2)CC1(F)F (single isomer, unassigned) [Compound 731] | < 0.05 µM | 0.05 to 0.5 µM | < 0.1 µM | 0.05 to 0.5 µM | > 1 µM |  |  |  |  |  | A (an IC50 ratio greater than or equal to 10 fold) | 1 to 10 µM |  |  |  |  |  |  | 
10 | Cc1cc([C@H]2CC[C@H](C)CN2C(=O)C(=O)Nc2cnc(N)c(C)c2)ccc1O (single isomer, unassigned) [Compound 551] | > 0.5 µM | > 0.5 µM |  | > 0.5 µM | > 1 µM |  |  |  | > 1 µM |  | C (an IC50 ratio of less than 3 fold) |  |  | > 10 µM |  |  |  |  | 

Continued, in another order:

Row | IC50 (PRMT5 [2]) | IC50 (PRMT5 [3]; read-out: No Cofactor/rel IC50) | IC50 [4, 8] | IC50 (PRMT5 [5]) | IC50 [6, 10] | IC50 ([4]; SDMA in-cell western, HAP1 MTAP-deleted, read-out: HAP1 MTAP deleted IC50) | IC50 ([6]; SDMA in-cell western, HAP1 MTAP-intact, read-out: MTAP HAP1 intact IC50) | IC50 (PRMT5 [3]; [12]) | IC50 [4, 13] | SMILES | IC50 [1, 7] | MTAP intact/deleted ratio [4, 9] | IC50 [1, 11] | IC50 ([1]; viability assay, MTAP-deleted cell line, read-out: HAP1 MTAP deleted viability) | IC50 [1, 14] | IC50 ([1]; Homo sapiens, HAP1, read-out: HAP1 MTAP deleted viability) | IC50 ([4]; Homo sapiens, HAP1, read-out: HAP1 MTAP deleted IC50) | MTAP intact/deleted ratio ([4]; IC50 ratio HAP1 MTAP-intact vs HAP1 MTAP-deleted, SDMA in-cell western) | IC50 ([6]; Homo sapiens, HAP1, read-out: MTAP HAP1 intact IC50) | IC50 ([1]; Homo sapiens, HAP1, viability, HAP1 MTAP-deleted cell line, read-out: HAP1 MTAP deleted viability)
11 | 0.05 to 0.5 µM | 0.05 to 0.5 µM | 0.1 to 1 µM | 0.05 to 0.5 µM | > 1 µM |  |  |  |  | C[C@@H]1CCN(C(=O)C(=O)Nc2cncc(C(N)=O)c2)[C@H](c2ccccc2)C1 (racemic) [Compound 442, 5-(2-(4-methyl-2-phenylpiperidin-1-yl)-2-oxoacetamido)nicotinamide] | 1 to 10 µM | A (an IC50 ratio greater than or equal to 10 fold) |  |  |  |  |  |  |  | 
12 | < 0.05 µM | 0.05 to 0.5 µM | 0.1 to 1 µM | 0.05 to 0.5 µM | > 1 µM |  |  |  |  | COc1ncc(NC(=O)C(=O)N2C[C@H](C)CC[C@H]2c2cc(F)c(F)c(F)c2)cc1C(N)=O (single isomer, unassigned) [Compound 742] |  | A (an IC50 ratio greater than or equal to 10 fold) | 1 to 10 µM |  |  |  |  |  |  | 
13 | < 0.05 µM | 0.05 to 0.5 µM |  | 0.05 to 0.5 µM |  | 0.1 to 1 µM | > 1 µM |  |  | COc1ncc(NC(=O)C(=O)N2CCCCC2c2ccccc2)cc1C(N)=O (single isomer, unassigned) [Compound 202, 2-methoxy-5-(2-oxo-2-(2-phenylpiperidin-1-yl)acetamido)nicotinamide] |  | A (an IC50 ratio greater than or equal to 10 fold) |  | > 10 µM |  |  |  |  |  | 
14 | 0.05 to 0.5 µM |  |  | > 0.5 µM | > 1 µM |  |  | > 0.5 µM | > 1 µM | NC(=O)c1cncc(NC(=O)C(=O)N2CCCC3(CCSCC3)C2)c1 [Compound 166, 5-(2-Oxo-2-{9-thia-2-azaspiro[5.5]undecan-2-yl}acetamido)pyridine-3-carboxamide] | > 10 µM | C (an IC50 ratio of less than 3 fold) |  |  |  |  |  |  |  | 
15 | < 0.05 µM | 0.05 to 0.5 µM |  | 0.05 to 0.5 µM | > 1 µM |  |  |  | < 0.1 µM | COc1ncc(NC(=O)C(=O)N2C[C@@H](C)CC[C@@H]2c2cccc3[nH]ncc23)cc1C(N)=O (single isomer, unassigned) [Compound 918] | < 1 µM | A (an IC50 ratio greater than or equal to 10 fold) |  |  |  |  |  |  |  | 
16 | 0.05 to 0.5 µM | 0.05 to 0.5 µM |  | 0.05 to 0.5 µM | > 1 µM |  |  |  | 0.1 to 1 µM | Cc1cc(NC(=O)C(=O)N2C[C@H](C)CC[C@H]2c2ccc(C(C)(C)O)cc2)cnc1N (racemic) [Compound 672, N-(6-amino-5-methyl-3-pyridyl)-2-[(2R,5S)-2-[4-(1-hydroxy-1-methyl-ethyl)phenyl]-5-methyl-1-piperidyl]-2-oxo-acetamide] |  | B (an IC50 ratio greater than or equal to 3 fold but lower than 10 fold) |  |  | 1 to 10 µM |  |  |  |  | 
17 | < 0.05 µM | 0.05 to 0.5 µM | > 1 µM | 0.05 to 0.5 µM | > 1 µM |  |  |  |  | CNS(=O)(=O)c1ccc([C@H]2CC[C@H](C)CN2C(=O)C(=O)Nc2cncc(C(N)=O)c2)cc1 (single isomer, unassigned) [Compound 722] |  | C (an IC50 ratio of less than 3 fold) | > 10 µM |  |  |  |  |  |  | 
18 | > 0.5 µM | > 0.5 µM | > 1 µM | > 0.5 µM | > 1 µM |  |  |  |  | CCc1cc(NC(=O)C(=O)N2C[C@@H](C)CC[C@@H]2c2ccc(NC)nc2)cnc1N (single isomer, unassigned) [Compound 878] |  | C (an IC50 ratio of less than 3 fold) | > 10 µM |  |  |  |  |  |  | 
19 | < 0.05 µM |  |  | 0.05 to 0.5 µM | < 0.1 µM |  |  | < 0.05 µM | < 0.1 µM | C[C@H]1CC[C@H](c2ccc3sc(C4CCN(C)CC4)nc3c2)N(C(=O)C(=O)Nc2cncc(C(N)=O)c2)C1 (single isomer, unassigned) [Compound 1255] |  | A (an IC50 ratio greater than or equal to 10 fold) |  |  |  |  |  |  |  | < 1 µM
